# What was measured:
# blackgrass = test: Test Example 5: herbicidal effect by foliage application, plastic box (Table 20, symbol J); assay type: in vivo, blackgrass (Alopecurus myosuroides); settings: foliage application
# Method in brief: (§1)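 Foliar spray test: emulsion formulation diluted in water to a set application rate, sprayed onto 14-day-old plants raised in diluvial soil at 25° C to 30° C under glass. Both herbicidal effect and crop effect rated visually three weeks later.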
# wild oat [1] = test: Test Example 4: herbicidal effect by soil treatment (Table 19, symbol I); assay type: in vivo, wild oat (Avena fatua)
# Method in brief: (§2)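 Step 1: sow seeds in sterilized diluvial soil, cover ~1.5 cm. Step 2: spray diluted emulsion onto soil surface at predetermined rate. Step 3: greenhouse, 25–30° C, three weeks. Step 4: grade effect on each plant by earlier criteria.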
# southern crabgrass = test: Test Example 4: herbicidal effect by soil treatment (Table 19, symbol F); assay type: in vivo, southern crabgrass (Digitaria ciliaris)
# Method in brief: as §2
# green foxtail [2] = test: Test Example 5: herbicidal effect by foliage application, plastic box (Table 20, symbol G); assay type: in vivo, green foxtail (Setaria viridis); settings: foliage application
# Method in brief: as §1
# lambsquarters = test: Test Example 4: herbicidal effect by soil treatment (Table 19, symbol O); assay type: in vivo, lambsquarters (Chenopodium album); settings: amount of applied herbicide 320 g/ha
# Method in brief: as §2
# barnyard grass [3] = test: Test Example 4: herbicidal effect by soil treatment (Table 19, symbol H); assay type: in vivo, barnyard grass (Echinochloa crus-galli)
# Method in brief: as §2
# velvetleaf [4] = test: Test Example 5: herbicidal effect by foliage application, plastic box (Table 20, symbol M); assay type: in vivo, velvetleaf (Abutilon theophrasti); settings: foliage application
# Method in brief: as §1
# windgrass = test: Test Example 5: herbicidal effect by foliage application, plastic box (Table 20, symbol L); assay type: in vivo, windgrass (Apera spica-venti); settings: foliage application
# Method in brief: as §1
# redroot pigweed [5] = test: Test Example 4: herbicidal effect by soil treatment (Table 19, symbol N); assay type: in vivo, redroot pigweed (Amaranthus retroflexus)
# Method in brief: as §2
# rice flat sedge = test: Test Example 3: herbicidal effect by foliage application, Wagner pot (Table 18, symbol E); assay type: in vivo, rice flat sedge (Cyperus iria); settings: for herbicidal effect on E (rice flat sedge), rating 0-5: 320 g/ha
# Method in brief: (§3)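 Plants were sown in alluvial soil held under 0.1–0.5 cm standing water and grown 14 days in a greenhouse at 25–30 °C. An emulsifiable formulation, water-diluted to the set dose, was then sprayed onto the foliage, and effects were scored three weeks later using previously defined criteria.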
# Italian ryegrass [6] = test: Test Example 4: herbicidal effect by soil treatment (Table 19, symbol K); assay type: in vivo, Italian ryegrass (Lolium multiflorum)
# Method in brief: as §2
# wild oat [7] = test: Test Example 5: herbicidal effect by foliage application, plastic box (Table 20, symbol I); assay type: in vivo, wild oat (Avena fatua); settings: foliage application
# Method in brief: as §1
# Japanese bulrush = test: Test Example 2: herbicidal activity, application during weed generation under submerged conditions (Table 17, symbol B); assay type: in vivo, Japanese bulrush (Schoenoplectus juncoides); settings: AAH 320 g/ha; application during weed generation, submerged conditions
# Method in brief: (§4)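 Effect on each weed is rated three weeks post-treatment, using the same scoring criteria as the preceding test. Plants grow from mixed-sown seed in flooded alluvial soil (4 cm water) at 25° C. to 30° C., and are treated at one to two leaves with diluted emulsion dropped onto the water.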
# green foxtail [8] = test: Test Example 4: herbicidal effect by soil treatment (Table 19, symbol G); assay type: in vivo, green foxtail (Setaria viridis)
# Method in brief: as §2
# late watergrass = test: Test Example 2: herbicidal activity, application during weed generation under submerged conditions (Table 17, symbol A); assay type: in vivo, late watergrass (Echinochloa oryzicola); settings: AAH 320 g/ha; application during weed generation, submerged conditions
# Method in brief: as §4
# Italian ryegrass [9] = test: Test Example 5: herbicidal effect by foliage application, plastic box (Table 20, symbol K); assay type: in vivo, Italian ryegrass (Lolium multiflorum); settings: foliage application
# Method in brief: as §1
# velvetleaf [10] = test: Test Example 4: herbicidal effect by soil treatment (Table 19, symbol M); assay type: in vivo, velvetleaf (Abutilon theophrasti)
# Method in brief: as §2
# barnyard grass [11] = test: Test Example 3: herbicidal effect by foliage application, Wagner pot (Table 18, symbol H); assay type: in vivo, barnyard grass (Echinochloa crus-galli); settings: for herbicidal effect on H (barnyard grass), rating 0-5: 320 g/ha
# Method in brief: as §3
# persian speedwell = test: Test Example 5: herbicidal effect by foliage application, plastic box (Table 20, symbol R); assay type: in vivo, Persian speedwell (Veronica persica); settings: foliage application
# Method in brief: as §1
# chickweed [12] = test: Test Example 5: herbicidal effect by foliage application, plastic box (Table 20, symbol P); assay type: in vivo, common chickweed (Stellaria media); settings: foliage application
# Method in brief: as §1
# redroot pigweed [13] = test: Test Example 5: herbicidal effect by foliage application, plastic box (Table 20, symbol N); assay type: in vivo, redroot pigweed (Amaranthus retroflexus); settings: foliage application
# Method in brief: as §1
# chickweed [14] = test: Test Example 4: herbicidal effect by soil treatment (Table 19, symbol P); assay type: in vivo, common chickweed (Stellaria media); settings: 320 g/ha
# Method in brief: as §2
# [15] = AAH 320 g/ha, three weeks after application
# [16] = amount of applied herbicide 320 g/ha
# [17] = 320 g/ha, evaluated three weeks after application
smiles,measurement,setting,value
Cc1nn(C)c(=O)c(-c2c(-c3ccc4c(c3)OCCO4)sc3ccccc23)c1O [1-089],"J: blackgrass, herbicidal effect",blackgrass; [15],0 (Herbicidal rate of 5% or less (almost no effect))
same,"herbicidal effect rating, I: wild oat",wild oat [1]; [16],0 (Herbicidal rate of 5% or less (almost no effect))
same,"herbicidal effect rating, F: southern crabgrass",southern crabgrass; [16],3 (Herbicidal rate of 40% or more and less than 70%)
same,"G: green foxtail, herbicidal effect",green foxtail [2]; [15],5 (Herbicidal rate of 90% or more (almost completely withered))
same,"herbicidal effect rating, O: lambsquarters",lambsquarters,5 (Herbicidal rate of 90% or more (almost completely withered))
same,"herbicidal effect rating, H: barnyard grass",barnyard grass [3]; [16],5 (Herbicidal rate of 90% or more (almost completely withered))
same,"M: velvetleaf, herbicidal effect",velvetleaf [4]; [15],5 (Herbicidal rate of 90% or more (almost completely withered))
same,"L: windgrass, herbicidal effect",windgrass; [15],4 (Herbicidal rate of 70% or more and less than 90%)
same,"herbicidal effect rating, N: redroot pigweed",redroot pigweed [5]; [16],4 (Herbicidal rate of 70% or more and less than 90%)
same,"herbicidal effect on E (rice flat sedge), rating 0-5",rice flat sedge,5 (Herbicidal rate of 90% or more (almost completely withered))
same,"herbicidal effect rating, K: Italian ryegrass",Italian ryegrass [6]; [16],0 (Herbicidal rate of 5% or less (almost no effect))
same,"I: wild oat, herbicidal effect",wild oat [7]; [15],0 (Herbicidal rate of 5% or less (almost no effect))
same,"herbicidal effect rating, B: Japanese bulrush",Japanese bulrush,1 (Herbicidal rate of 5% or more and less than 20%)
same,"herbicidal effect rating, G: green foxtail",green foxtail [8]; [16],5 (Herbicidal rate of 90% or more (almost completely withered))
same,"herbicidal effect rating, A: late watergrass",late watergrass,5 (Herbicidal rate of 90% or more (almost completely withered))
same,"K: Italian ryegrass, herbicidal effect",Italian ryegrass [9]; [15],5 (Herbicidal rate of 90% or more (almost completely withered))
same,"herbicidal effect rating, M: velvetleaf",velvetleaf [10]; [16],2 (Herbicidal rate of 20% or more and less than 40%)
same,"herbicidal effect on H (barnyard grass), rating 0-5",barnyard grass [11],5 (Herbicidal rate of 90% or more (almost completely withered))
same,"R: persian speedwell, herbicidal effect",persian speedwell; [15],5 (Herbicidal rate of 90% or more (almost completely withered))
same,"P: chickweed, herbicidal effect",chickweed [12]; [15],5 (Herbicidal rate of 90% or more (almost completely withered))
same,"N: redroot pigweed, herbicidal effect",redroot pigweed [13]; [15],1 (Herbicidal rate of 5% or more and less than 20%)
C#CCOc1ccc(-c2sc3ccc(F)cc3c2-c2c(OCOCCOC)c(C)nn(C)c2=O)cc1 [2-055],herbicidal effect on J: blackgrass,blackgrass; [17],3 (Herbicidal rate of 40% or more and less than 70%)
same,"herbicidal effect rating, I: wild oat",wild oat [1]; 320 g/ha,0 (Herbicidal rate of 5% or less (almost no effect))
same,"herbicidal effect rating, F: southern crabgrass",southern crabgrass; 320 g/ha,1 (Herbicidal rate of 5% or more and less than 20%)
same,herbicidal effect on G: green foxtail,green foxtail [2]; [17],5 (Herbicidal rate of 90% or more (almost completely withered))
same,"herbicidal effect rating, H: barnyard grass",barnyard grass [3]; 320 g/ha,3 (Herbicidal rate of 40% or more and less than 70%)
same,herbicidal effect on M: velvetleaf,velvetleaf [4]; [17],5 (Herbicidal rate of 90% or more (almost completely withered))
same,"herbicidal effect rating, P: chickweed",chickweed [14],3 (Herbicidal rate of 40% or more and less than 70%)
same,herbicidal effect on L: windgrass,windgrass; [17],0 (Herbicidal rate of 5% or less (almost no effect))
same,"herbicidal effect rating, N: redroot pigweed",redroot pigweed [5]; 320 g/ha,4 (Herbicidal rate of 70% or more and less than 90%)
same,"herbicidal effect on E (rice flat sedge), rating 0-5",rice flat sedge,4 (Herbicidal rate of 70% or more and less than 90%)
same,"herbicidal effect rating, K: Italian ryegrass",Italian ryegrass [6]; 320 g/ha,0 (Herbicidal rate of 5% or less (almost no effect))
same,herbicidal effect on I: wild oat,wild oat [7]; [17],1 (Herbicidal rate of 5% or more and less than 20%)
same,"herbicidal effect rating, B: Japanese bulrush",Japanese bulrush,3 (Herbicidal rate of 40% or more and less than 70%)
same,"herbicidal effect rating, G: green foxtail",green foxtail [8]; 320 g/ha,4 (Herbicidal rate of 70% or more and less than 90%)
same,"herbicidal effect rating, A: late watergrass",late watergrass,0 (Herbicidal rate of 5% or less (almost no effect))
same,herbicidal effect on K: Italian ryegrass,Italian ryegrass [9]; [17],3 (Herbicidal rate of 40% or more and less than 70%)
same,"herbicidal effect rating, M: velvetleaf",velvetleaf [10]; 320 g/ha,3 (Herbicidal rate of 40% or more and less than 70%)
same,"herbicidal effect on H (barnyard grass), rating 0-5",barnyard grass [11],5 (Herbicidal rate of 90% or more (almost completely withered))
same,herbicidal effect on R: persian speedwell,persian speedwell; [17],5 (Herbicidal rate of 90% or more (almost completely withered))
same,herbicidal effect on P: chickweed,chickweed [12]; [17],5 (Herbicidal rate of 90% or more (almost completely withered))
same,herbicidal effect on N: redroot pigweed,redroot pigweed [13]; [17],5 (Herbicidal rate of 90% or more (almost completely withered))
Cc1nn(C)c(=O)c(-c2c(-c3cccc(OC(C)C)c3)sc3ccc(F)cc23)c1O [2-215],herbicidal effect on J: blackgrass (criteria 0-5),blackgrass; [17],3 (Herbicidal rate of 40% or more and less than 70%)
same,"I: wild oat, herbicidal effect rating",wild oat [1]; [16],0 (Herbicidal rate of 5% or less (almost no effect))
same,"F: southern crabgrass, herbicidal effect rating",southern crabgrass; [16],5 (Herbicidal rate of 90% or more (almost completely withered))
same,herbicidal effect on G: green foxtail (criteria 0-5),green foxtail [2]; [17],5 (Herbicidal rate of 90% or more (almost completely withered))
same,"O: lambsquarters, herbicidal effect rating",lambsquarters,3 (Herbicidal rate of 40% or more and less than 70%)
same,"H: barnyard grass, herbicidal effect rating",barnyard grass [3]; [16],5 (Herbicidal rate of 90% or more (almost completely withered))
same,herbicidal effect on M: velvetleaf (criteria 0-5),velvetleaf [4]; [17],3 (Herbicidal rate of 40% or more and less than 70%)
same,herbicidal effect on L: windgrass (criteria 0-5),windgrass; [17],3 (Herbicidal rate of 40% or more and less than 70%)
same,"N: redroot pigweed, herbicidal effect rating",redroot pigweed [5]; [16],5 (Herbicidal rate of 90% or more (almost completely withered))
same,herbicidal effect on E: rice flat sedge,rice flat sedge; [16],4 (Herbicidal rate of 70% or more and less than 90%)
same,"K: Italian ryegrass, herbicidal effect rating",Italian ryegrass [6]; [16],3 (Herbicidal rate of 40% or more and less than 70%)
same,herbicidal effect on I: wild oat (criteria 0-5),wild oat [7]; [17],0 (Herbicidal rate of 5% or less (almost no effect))
same,"herbicidal effect rating, B: Japanese bulrush",Japanese bulrush,0 (Herbicidal rate of 5% or less (almost no effect))
same,"G: green foxtail, herbicidal effect rating",green foxtail [8]; [16],5 (Herbicidal rate of 90% or more (almost completely withered))
same,"herbicidal effect rating, A: late watergrass",late watergrass,2 (Herbicidal rate of 20% or more and less than 40%)
same,herbicidal effect on K: Italian ryegrass (criteria 0-5),Italian ryegrass [9]; [17],5 (Herbicidal rate of 90% or more (almost completely withered))
same,"M: velvetleaf, herbicidal effect rating",velvetleaf [10]; [16],2 (Herbicidal rate of 20% or more and less than 40%)
same,herbicidal effect on H: barnyard grass,barnyard grass [11]; [16],5 (Herbicidal rate of 90% or more (almost completely withered))
same,herbicidal effect on R: persian speedwell (criteria 0-5),persian speedwell; [17],5 (Herbicidal rate of 90% or more (almost completely withered))
same,herbicidal effect on P: chickweed (criteria 0-5),chickweed [12]; [17],5 (Herbicidal rate of 90% or more (almost completely withered))
same,herbicidal effect on N: redroot pigweed (criteria 0-5),redroot pigweed [13]; [17],5 (Herbicidal rate of 90% or more (almost completely withered))
